Results as given in PubChem BioAssay (NCI).
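A five-concentration, 48-hour dose response in 96-well plates underlies each endpoint, interpolated linearly between surrounding concentrations. GI50: concentration for 50% inhibition of growth. TGI denotes the concentration required for complete inhibition of growth.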

Legend:
Test in all cases: DTP human tumour cell line panel, 48 h
A549 NSCLC = test system: A549 NSCLC
COLO 205 colon = test system: COLO 205 colon
SF-295 CNS = test system: SF-295 CNS
SK-OV-3 ovarian = test system: SK-OV-3 ovarian
A498 renal = test system: A498 renal
CAKI-1 renal = test system: CAKI-1 renal
UACC-257 melanoma = test system: UACC-257 melanoma
NCI-H522 lung = test system: NCI-H522 lung
RXF 393 renal = test system: RXF 393 renal
HL-60(TB) leukemia = test system: HL-60(TB) leukemia
OVCAR-3 ovarian = test system: OVCAR-3 ovarian
BT-549 breast = test system: BT-549 breast
OVCAR-5 ovarian = test system: OVCAR-5 ovarian
HCT-116 colon = test system: HCT-116 colon
MCF7 breast = test system: MCF7 breast
SN12C renal = test system: SN12C renal
HT29 colon = test system: HT29 colon
K-562 leukemia = test system: K-562 leukemia
SK-MEL-28 melanoma = test system: SK-MEL-28 melanoma
UO-31 renal = test system: UO-31 renal
CCRF-CEM leukemia = test system: CCRF-CEM leukemia
UACC-62 melanoma = test system: UACC-62 melanoma
SF-539 CNS = test system: SF-539 CNS
PC-3 prostate = test system: PC-3 prostate
SNB-75 CNS = test system: SNB-75 CNS
U251 CNS = test system: U251 CNS
HCC-2998 colon = test system: HCC-2998 colon
SF-268 CNS = test system: SF-268 CNS
NCI-H226 lung = test system: NCI-H226 lung
SK-MEL-5 melanoma = test system: SK-MEL-5 melanoma
MALME-3M melanoma = test system: MALME-3M melanoma
HCT-15 colon = test system: HCT-15 colon
HOP-62 NSCLC = test system: HOP-62 NSCLC
SR leukemia = test system: SR leukemia
NCI-H460 lung = test system: NCI-H460 lung
NCI/ADR-RES ovarian = test system: NCI/ADR-RES ovarian
MDA-MB-435 = test system: MDA-MB-435
MDA-MB-468 breast = test system: MDA-MB-468 breast
MOLT-4 leukemia = test system: MOLT-4 leukemia
KM12 colon = test system: KM12 colon
IGROV1 ovarian = test system: IGROV1 ovarian
OVCAR-8 ovarian = test system: OVCAR-8 ovarian
RPMI-8226 leukemia = test system: RPMI-8226 leukemia
T-47D breast = test system: T-47D breast
M14 melanoma = test system: M14 melanoma
SW-620 colon = test system: SW-620 colon
LOX IMVI melanoma = test system: LOX IMVI melanoma
HOP-92 NSCLC = test system: HOP-92 NSCLC
786-0 renal = test system: 786-0 renal
SK-MEL-2 melanoma = test system: SK-MEL-2 melanoma
MDA-MB-231 breast = test system: MDA-MB-231 breast
DU-145 prostate = test system: DU-145 prostate
TK-10 renal = test system: TK-10 renal
OVCAR-4 ovarian = test system: OVCAR-4 ovarian
SNB-19 CNS = test system: SNB-19 CNS
ACHN renal = test system: ACHN renal
EKVX NSCLC = test system: EKVX NSCLC
HS 578T breast = test system: HS 578T breast
NCI-H23 lung = test system: NCI-H23 lung

O=C(N=Nc1c(O)[nH]c2ccc(Cl)cc12)c1ccc2nc(-c3ccc(Cl)cc3)[nH]c2c1
GI50 (A549 NSCLC): 29 µM
TGI (A549 NSCLC): > 57.7 µM
GI50 (COLO 205 colon): 2.27 µM
TGI (COLO 205 colon): 10.5 µM
GI50 (SF-295 CNS): 2.97 µM
TGI (SF-295 CNS): 20.2 µM
GI50 (SK-OV-3 ovarian): 15.5 µM
TGI (SK-OV-3 ovarian): > 57.7 µM
GI50 (A498 renal): 18.4 µM
TGI (A498 renal): 57 µM
GI50 (CAKI-1 renal): > 57.7 µM
TGI (CAKI-1 renal): > 57.7 µM
GI50 (UACC-257 melanoma): 40 µM
TGI (UACC-257 melanoma): > 57.7 µM
GI50 (NCI-H522 lung): 3.73 µM
TGI (NCI-H522 lung): 27.2 µM
GI50 (RXF 393 renal): 2.99 µM
TGI (RXF 393 renal): 19.4 µM
GI50 (HL-60(TB) leukemia): 10.1 µM
TGI (HL-60(TB) leukemia): > 57.7 µM
GI50 (OVCAR-3 ovarian): 5.2 µM
TGI (OVCAR-3 ovarian): > 57.7 µM
GI50 (BT-549 breast): 7.12 µM
TGI (BT-549 breast): 25.8 µM
GI50 (OVCAR-5 ovarian): 3.5 µM
TGI (OVCAR-5 ovarian): > 57.7 µM
GI50 (HCT-116 colon): 2.35 µM
TGI (HCT-116 colon): > 57.7 µM
GI50 (MCF7 breast): 1.39 µM
TGI (MCF7 breast): > 57.7 µM
GI50 (SN12C renal): 2.53 µM
TGI (SN12C renal): 33.2 µM
GI50 (HT29 colon): 2.33 µM
TGI (HT29 colon): > 57.7 µM
GI50 (K-562 leukemia): 1.62 µM
TGI (K-562 leukemia): > 57.7 µM
GI50 (SK-MEL-28 melanoma): 6.25 µM
TGI (SK-MEL-28 melanoma): 49.7 µM
GI50 (UO-31 renal): > 57.7 µM
TGI (UO-31 renal): > 57.7 µM
GI50 (CCRF-CEM leukemia): 0.969 µM
TGI (CCRF-CEM leukemia): 4.39 µM
GI50 (UACC-62 melanoma): 4.64 µM
TGI (UACC-62 melanoma): 26.6 µM
GI50 (SF-539 CNS): 2.11 µM
TGI (SF-539 CNS): 8.18 µM
GI50 (PC-3 prostate): 7.5 µM
TGI (PC-3 prostate): > 57.7 µM
GI50 (SNB-75 CNS): 1.74 µM
TGI (SNB-75 CNS): 14 µM
GI50 (U251 CNS): 1.75 µM
TGI (U251 CNS): 6.46 µM
GI50 (HCC-2998 colon): 3.4 µM
TGI (HCC-2998 colon): > 57.7 µM
GI50 (SF-268 CNS): 1.78 µM
TGI (SF-268 CNS): 10.6 µM
GI50 (NCI-H226 lung): 13.7 µM
TGI (NCI-H226 lung): > 57.7 µM
GI50 (SK-MEL-5 melanoma): > 57.7 µM
TGI (SK-MEL-5 melanoma): > 57.7 µM
GI50 (MALME-3M melanoma): 2.27 µM
TGI (MALME-3M melanoma): 10.9 µM
GI50 (HCT-15 colon): > 57.7 µM
TGI (HCT-15 colon): > 57.7 µM
GI50 (HOP-62 NSCLC): 6.93 µM
TGI (HOP-62 NSCLC): 24 µM
GI50 (SR leukemia): 3.29 µM
TGI (SR leukemia): > 57.7 µM
GI50 (NCI-H460 lung): 2.38 µM
TGI (NCI-H460 lung): > 57.7 µM
GI50 (NCI/ADR-RES ovarian): > 57.7 µM
TGI (NCI/ADR-RES ovarian): > 57.7 µM
GI50 (MDA-MB-435): 2.05 µM
TGI (MDA-MB-435): 13.3 µM
GI50 (MDA-MB-468 breast): 1.4 µM
TGI (MDA-MB-468 breast): 4.88 µM
GI50 (MOLT-4 leukemia): 1.42 µM
TGI (MOLT-4 leukemia): 16.5 µM
GI50 (KM12 colon): > 57.7 µM
TGI (KM12 colon): > 57.7 µM
GI50 (IGROV1 ovarian): 3.64 µM
TGI (IGROV1 ovarian): > 57.7 µM
GI50 (OVCAR-8 ovarian): 4.42 µM
TGI (OVCAR-8 ovarian): > 57.7 µM
GI50 (RPMI-8226 leukemia): > 57.7 µM
TGI (RPMI-8226 leukemia): > 57.7 µM
GI50 (T-47D breast): 2 µM
TGI (T-47D breast): 44.3 µM
GI50 (M14 melanoma): 3.82 µM
TGI (M14 melanoma): > 57.7 µM
GI50 (SW-620 colon): 1.91 µM
TGI (SW-620 colon): > 57.7 µM
GI50 (LOX IMVI melanoma): 1.07 µM
TGI (LOX IMVI melanoma): 2.32 µM
GI50 (HOP-92 NSCLC): 8.67 µM
TGI (HOP-92 NSCLC): 39 µM
GI50 (786-0 renal): 3.08 µM
TGI (786-0 renal): 21.2 µM
GI50 (SK-MEL-2 melanoma): 41.5 µM
TGI (SK-MEL-2 melanoma): > 57.7 µM
GI50 (MDA-MB-231 breast): 1.51 µM
TGI (MDA-MB-231 breast): 4.74 µM
GI50 (DU-145 prostate): 3.74 µM
TGI (DU-145 prostate): > 57.7 µM
GI50 (TK-10 renal): 40.9 µM
TGI (TK-10 renal): > 57.7 µM
GI50 (OVCAR-4 ovarian): 1.98 µM
TGI (OVCAR-4 ovarian): 18.8 µM
GI50 (SNB-19 CNS): 2.05 µM
TGI (SNB-19 CNS): 10.7 µM
GI50 (ACHN renal): 23.5 µM
TGI (ACHN renal): > 57.7 µM
GI50 (EKVX NSCLC): 16.6 µM
TGI (EKVX NSCLC): > 57.7 µM
GI50 (HS 578T breast): 2.67 µM
TGI (HS 578T breast): 41.3 µM
GI50 (NCI-H23 lung): 2.22 µM
TGI (NCI-H23 lung): 9.84 µM
